# According to US20150218142A1, “Derivatives of Betulin” (GlaxoSmithKline LLC, priority 2011, published 2015):
# Like-named read-outs stand apart in the source and are kept apart here.
# Key:
# HIV [1] = test: microbe, parasite or virus in culture; conditions: Human immunodeficiency virus 1, read-out: LHIV IC50 value with 40% human serum
# HIV [2] = tested on: HIV
# HIV [3] = conditions: McCallister et al. 2008 poster; cited from earlier work
# HIV NL4-3 wt = test: microbe, parasite or virus in culture; type: cell-based
# [4] = tested on: NL4-3 strain with V370A site directed mutant polymorphism; test: microbe, parasite or virus in culture; type: cell-based, HIV-1
# [5] = Human immunodeficiency virus 1, NL43, Consensus Clade B Sp1 Genotype, read-out: MT4 NL. wt* EC50
# [6] = Human immunodeficiency virus 1, NL43, HIV MT4 Antiviral Cell Assay of Example 84, read-out: EC50 NL4-3 wt
compound,measurement,setting,value
C=C(C)[C@@H]1CC[C@]2(C(=O)O)CC[C@]3(C)[C@H](CC[C@@H]4[C@@]5(C)CC[C@H](OC(=O)CC(C)(C)C(=O)O)C(C)(C)[C@@H]5CC[C@]43C)[C@@H]12 [Bevirimat],IC50,HIV [1],3880 nM
same,"fold shift in the IC50 value, LHIV assay, 40% human serum",HIV [2]; addition of 40% human serum,174.9 fold
same,fold shift with human serum,"HIV [2]; human protein shift, human serum (HS)",157 fold
same,Cmin target,HIV [3],> 20000 ng/mL
CC(C)C1=C2[C@H]3CC[C@@H]4[C@@]5(C)CC[C@H](OC(=O)CC(C)(C)C(=O)O)C(C)(C)[C@@H]5CC[C@@]4(C)[C@]3(C)CC[C@@]2(C(=O)C(=O)NC2(c3ccc(Cl)cc3)CC2)CC1=O [Compound A],EC50,HIV NL4-3 wt; [5],14 nM
same,EC50,"[4]; Human immunodeficiency virus 1, NL43, read-out: MT4 NL. V370A EC50 (nM)",16 nM
CC(C)C1=C2[C@H]3CC[C@@H]4[C@@]5(C)CC[C@H](OC(=O)CC(C)(C)C(=O)O)C(C)(C)[C@@H]5CC[C@@]4(C)[C@]3(C)CC[C@@]2(C(=O)C(=O)N(CCN(C)C)Cc2ccc(Cl)cc2)CC1=O [Compound C],EC50,"HIV NL4-3 wt; Human immunodeficiency virus 1, NL43, Table 7, read-out: HIV w/t MT4 EC50",6 nM
same,EC50,"HIV NL4-3 wt; Human immunodeficiency virus 1, NL43, read-out: MT4 antiviral assay NL4-3 strain / HIV wild type EC50",6 nM
same,EC50,"[4]; Human immunodeficiency virus 1, NL43, read-out: MT4 antiviral assay V370A polymorphism EC50",19 nM
same,EC50,"[4]; Human immunodeficiency virus 1, NL43, read-out: V370A MT4 EC50",19 nM
same,EC50,"[4]; Human immunodeficiency virus 1, NL43, read-out: protein adjusted EC50 for the V370A polymorphic virus",929 nM
CC(C)C1=C2[C@H]3CC[C@@H]4[C@@]5(C)CC[C@H](OC(=O)CC(C)(C)C(=O)O)C(C)(C)[C@@H]5CC[C@@]4(C)[C@]3(C)CC[C@@]2(C(=O)C(=O)NC2(c3ncc(Cl)cn3)CC2)CC1=O [CompoundB],EC50,HIV NL4-3 wt; [5],8 nM
CC(C)C1=C2[C@H]3CC[C@@H]4[C@@]5(C)CC[C@H](OC(=O)CC(C)(C)C(=O)O)C(C)(C)[C@@H]5CC[C@@]4(C)[C@]3(C)CC[C@@]2([C@H](O)CNCc2cccc(Cl)c2)CC1=O [compound 37],EC50,HIV NL4-3 wt; [6],26.9 nM
CC(C)C1=C2[C@H]3CC[C@@H]4[C@@]5(C)CC[C@H](OC(=O)CC(C)(C)C(=O)O)C(C)(C)[C@@H]5CC[C@@]4(C)[C@]3(C)CC[C@@]2([C@@H](O)CNCc2cccc(Cl)c2)CC1=O [compound 38],EC50,HIV NL4-3 wt; [6],5.2 nM
CC(=O)O[C@H](CNCc1ccccc1)[C@@]12CC[C@]3(C)[C@H](CC[C@@H]4[C@@]5(C)CC[C@H](OC(=O)CC(C)(C)C(=O)O)C(C)(C)[C@@H]5CC[C@]43C)C1=C(C(C)C)C(=O)C2 [compound 53],EC50,HIV NL4-3 wt; [6],6.2 nM
CC(C)C1=C2[C@H]3CC[C@@H]4[C@@]5(C)CC[C@H](OC(=O)CC(C)(C)C(=O)O)C(C)(C)[C@@H]5CC[C@@]4(C)[C@]3(C)CC[C@@]2([C@@H](O)CNC2CCCCC2)CC1=O [compound 59],EC50,HIV NL4-3 wt; [6],5.3 nM
